Structures can show the parent of a compound that is named as a salt. Where two headings read alike, the source gives them in different places.
Tested on: PAM 212 keratinocytes
Experiment: PAM 212 keratinocyte growth inhibition assay (photobiological activity; Toxicity, Table I)
Format: cell-based
Details: Mus musculus, PAM212, light or radiation study
Source text: Psoriasis, mycosis fungolides, eczema, scleroderma, cancer, and similar proliferative diseases are often characterized by abnormal cell growth regulation. Application of PUVA therapy to correct proliferative disorders on the skin or internally, especially psoriasis, is one clinical expression of photochemotherapy. The use of the assay described in Example 16 is based on the observation that phototherapeutics are extremely potent inhibitors of growth factor binding in mammalian cells including humans and this inhibition arrests the proliferative disorder. This assay was performed in the cell culture laboratory. For a discussion of cell growth assays see, e.g:, J. Laskin et al., Cancer Research, vol. 39, pp. 383-390 (1979) and E. Yurkow and J. Laskin, Cancer Chemotherapy and Pharmacology, vol. 27, pp. 315-319, (1991). Inhibition of cell growth is dependent on dose ol the phototherapeutic and on the quanta of light in the 320-400 nm wavelength (ultraviolet light A). It is also structure-dependent, that is, there is a direct correlation between those specific phototherapeutics currently used that are clinically active and their ability to inhibit the growth of the cells.
Representative examples of the compounds described and claimed herein were tested in this assay for biological activity and found to be potent inhibitors of cell growth. Inhibition of cell growth was rapid, dependent on concentration, and required light activation. […] A description of this assay follows.
The photobiological activity was assayed using a keratinocyte cell line grown in a monolayer culture. In this assay, PAM 212 keratinocytes were grown in Dulbecco's Modified Eagle's medium supplemented with 10% newborn calf serum in a 5% carbon dioxide incubator. Cells were inoculated into 6-well Falcon plastic culture dishes at 25,000 cells per well. After 24 hours, the medium was charged to fresh growth medium supplemented with increasing concentrations of the test compounds or the control medium. Controls and test concentrations were analyzed in triplicate.
These plates were then incubated in a 37° C. carbon dioxide incubator. […] The incident light on the culture plates was 2.4 mW/cm^2 as measured with an International Light UV radiometer, Model IL 442A. […]
After completion of the irradiation phase, the cell culture medium was drained, the cells refed with fresh growth medium and then re-incubated in the carbon dioxide incubator to allow for cell growth. After 4-5 days of growth the culture plates were removed from the incubator and the cell culture medium was drained. The cells were detached from the plates with trypsin and counted in a Coulter Counter. For control cells or for cells treated with test compounds, cell growth was determined as a percentage of control. […] This value is shown in Table I for a variety of phototherapeutics.

[1] = with UVA (320-400 nm) 1.28 J/square centimeter after 30 minutes incubation, 4-5 days of growth, read-out: Photo-toxicity (IC50 values), concentration at which photoactivated test compound inhibited growth by 50%
[2] = dark (no UVA light), read-out: Dark-toxicity (IC50 values)

Structure (SMILES) | IC50 [1] | IC50 [2]
Cc1cc(=O)oc2c(C)c3c(cc12)C(C[n+]1ccccc1)CO3 (stereo not shown) [Example 9, 4,8-Dimethyl-4'-pyridiniummethyl-4',5'-dihydropsoralen Iodide Salt] | 0.5 µM | –
C=CCOc1c(N)cc2c(C)cc(=O)oc2c1C [Example 3, 6-Amino-4.8-dimethyl-7-allyloxycoumarin] | 240 µM | > 100 µM
Cc1c(Br)c(=O)oc2c(C)c3c(cc12)C(C[n+]1ccccc1)CO3 (stereo not shown) [Example 12, 3-Bromo-4,8-dimethyl-4'-pyridiniummethyl-4',5'-dihydropsoralen Iodide Salt] | > 30 µM | 70 µM
C=CCOc1c([N+](=O)[O-])cc2c(C)cc(=O)oc2c1C [Example 2, 6-Nitro-4,8-dimethyl-7-allyloxycoumarin] | 5 µM | > 100 µM
Cc1cc(=O)oc2c(C)c(O)c([N+](=O)[O-])cc12 [Example 1, 6-Nitro-4,8-dimethyl-7-hydroxycoumarin] | > 300 µM | –
Cc1cc(=O)oc2c(C)c3c(cc12)C(CC#N)CO3 (stereo not shown) [Example 15, 4,8-Dimethyl-4'-cyanomethyl-4',5'-dihydropsoralen] | 3 µM | > 100 µM
Cc1cc(=O)oc2c(C)c3c(cc12)C(CI)CO3 (stereo not shown) [Example 5, 4,8-Dimethyl-4'-iodomethyl-4',5'-dihydropsoralen] | 0.1 µM | > 100 µM
Cc1c(Br)c(=O)oc2c(C)c3c(cc12)C(CI)CO3 (stereo not shown) [Example 6, 3-Bromo-4,8-dimethyl-4'-iodomethyl-4',5'-dihydropsoralen] | 0.2 to 0.5 µM | –
